Data set [1] relates to MIA Paca-2 human pancreatic adenocarcinoma. The data set can be described thus: MIA Paca-2 pancreatic xenograft model. The class given is in vivo, mouse.
Another data set has as its system rats. The conditions noted are these: 50 rats treated for 3 weeks, 3×1 mg/kg body weight/week; cited from earlier work.
Another data set concerns Calu-6 human NSCLC. The data set can be described thus: Calu-6 lung xenograft model. Type of data set: in vivo, mouse. On the procedure: The effect of Compound 8 was evaluated in the Calu-6 human NSCLC nude mouse (female Crl:NU(NCr)-Foxn1^nu) xenograft model.
In the next data set the test system is patients. To be noted: cited from earlier work.
Another data set deals with NCI-H520 human NSCLC. Nature of the data set: NCI-H520 lung xenograft model. The class given is in vivo, mouse. On the procedure: The effect of Compound 8 also was evaluated in the NCI-H520 human NSCLC nude mouse (female CrTac:NCr-Foxn1^nu) xenograft model. […] All treatments were statistically significant compared to vehicle (p<0.0001).
Data set [2] has as its system A2780 human ovarian cancer. The data set can be described thus: A2780 ovarian xenograft model. Type of data set: in vivo, mouse. On the procedure: The effect of Compound 8 on tumor growth inhibition (TGI) was evaluated in the A2780 human ovarian cancer nude mouse (female Crl:NU(NCr)-Foxn1^nu) xenograft model.
In the next data set the test system is rat. The data set can be described thus: Single IV administration in the rat, kidney findings. The class given is in vivo. To be noted: single dose of cisplatin 7 mg/kg.
The subject of data set [3] is BxPC-3 human pancreatic adenocarcinoma. The data set can be described thus: BxPC-3 pancreatic xenograft model. Type of data set: in vivo, mouse. The conditions noted are these: cisplatin 4 mg/kg. On the procedure: The effect of Compound 8 on TGI was evaluated in the BxPC-3 human pancreatic adenocarcinoma nude mouse (female Crl:NU(NCr)-Foxn1^nu) xenograft model.

Results on two compounds are retold here after patent publication US20190350940A1, “PLATINUM COMPOUNDS, COMPOSITIONS, AND USES THEREOF” (priority 2015, published 2019).

Like-named read-outs stand apart in the source and are kept apart here.

With `O=C1[O][Pt]2([NH][C@@H]3CCCC[C@H]3[NH]2)[O]C1=O` [Oxaliplatin], in data set [1] (Oxaliplatin 7 mg/kg (17.9 uM/kg) IV q3, 7 doses, Day 18), the “MTV (mean tumor volume)” value is 1251 mm^3. For the same compound, the “TGI (tumor growth inhibition) versus vehicle” value in data set [1] (Oxaliplatin 7 mg/kg IV q3, 7 doses, Day 18) amounted to 61%. Besides, in data set [1] (oxaliplatin 7 mg/kg, all animals, Day 18), the Treatment-related effects result was “pale and dehydrated and having petechiae”. Also, the “Mean maximal BW loss” value in data set [1] (oxaliplatin 7 mg/kg, printed 'Day 5.3') stood at 8.1%.
Turning to `N.N.[Cl][Pt][Cl]` [Cisplatin], in the data set on rats, the “Deaths secondary to malignancy” value is reported as 13. In addition, the “MTV (mean tumor volume)” value in the data set with Calu-6 human NSCLC (Cisplatin 3 mg/kg (10 uM/kg) IV twice weekly for 2 weeks, Day 33) is on record as 462 mm^3; in the data set on NCI-H520 human NSCLC (Cisplatin 3 mg/kg (10 uM/kg) IV twice weekly, 5 doses, Day 31) it was 823 mm^3; in data set [2] (Cisplatin 4 mg/kg (13.3 uM/kg) IV every 3 days, 6 doses) it was 1052 mm^3. In addition, the “TGI (tumor growth inhibition) versus vehicle” value is given as 74% with Calu-6 human NSCLC (Cisplatin 3 mg/kg IV twice weekly for 2 weeks, Day 33) and 55% in data set [2] (Cisplatin 4 mg/kg IV every 3 days, 6 doses). The “Median TTE (time to endpoint)” value in the data set on Calu-6 human NSCLC (Cisplatin 3 mg/kg IV twice weekly for 2 weeks, Day 54) amounted to 52.5 days. Besides, the BW loss entry in the data set with Calu-6 human NSCLC (cisplatin 3 mg/kg) was “no BW loss”. In the data set on Calu-6 human NSCLC (cisplatin 3 mg/kg), this compound registered a T-C of 16.7 days. In addition, the Treatment-related side effects entry was “severe petechiae on Day 4” in the data set on Calu-6 human NSCLC (cisplatin 3 mg/kg, one animal) and “No treatment-related side effects” in data set [3]. In addition, the “Response rate in most advanced cancers” value with patients (first-line setting) was approximately 50%; with patients (second- or third-line setting), 15%. Also, the “Hypersensitivity reactions, patients treated” value in the data set with patients (human, in vivo) is listed as “up to 20%”. Moreover, the “Mean maximal BW loss” value in the data set with NCI-H520 human NSCLC (cisplatin 3 mg/kg, on Day 4) was found to be 0.43%; in data set [2] (cisplatin 4 mg/kg, Day 5), 2.3%. Further, the Kidney findings entry with rat is “high incidence of moderate acute tubular necrosis of the kidney”.
